We go through one compound from article PMC6014686, “Thienopyrimidinone Based Sirtuin-2 (SIRT2)-Selective Inhibitors Bind in the Ligand Induced Selectivity Pocket” (Journal of Medicinal Chemistry, 2017).

Each structure is given as a SMILES string.

For orientation: IC50 means the midpoint of a concentration-inhibition curve.

The subject of test [1] is acetylated (lysine-40) α-tubulin in MCF-7 cells. Description: Tubulin acetylation assay, Western blot in MCF-7 cells with TSA. The note with it: 0-50 μM for 24 h with 50 nM TSA, N = 3.
In the next test the test system is SIRT5. On the set-up: method as in PMID 25395356. The note with it: cited from earlier work.
The target in a further test is T1, SIRT1 (Homo sapiens, UniProt Q96EB6).
T1 sequence (Q96EB6 1-747): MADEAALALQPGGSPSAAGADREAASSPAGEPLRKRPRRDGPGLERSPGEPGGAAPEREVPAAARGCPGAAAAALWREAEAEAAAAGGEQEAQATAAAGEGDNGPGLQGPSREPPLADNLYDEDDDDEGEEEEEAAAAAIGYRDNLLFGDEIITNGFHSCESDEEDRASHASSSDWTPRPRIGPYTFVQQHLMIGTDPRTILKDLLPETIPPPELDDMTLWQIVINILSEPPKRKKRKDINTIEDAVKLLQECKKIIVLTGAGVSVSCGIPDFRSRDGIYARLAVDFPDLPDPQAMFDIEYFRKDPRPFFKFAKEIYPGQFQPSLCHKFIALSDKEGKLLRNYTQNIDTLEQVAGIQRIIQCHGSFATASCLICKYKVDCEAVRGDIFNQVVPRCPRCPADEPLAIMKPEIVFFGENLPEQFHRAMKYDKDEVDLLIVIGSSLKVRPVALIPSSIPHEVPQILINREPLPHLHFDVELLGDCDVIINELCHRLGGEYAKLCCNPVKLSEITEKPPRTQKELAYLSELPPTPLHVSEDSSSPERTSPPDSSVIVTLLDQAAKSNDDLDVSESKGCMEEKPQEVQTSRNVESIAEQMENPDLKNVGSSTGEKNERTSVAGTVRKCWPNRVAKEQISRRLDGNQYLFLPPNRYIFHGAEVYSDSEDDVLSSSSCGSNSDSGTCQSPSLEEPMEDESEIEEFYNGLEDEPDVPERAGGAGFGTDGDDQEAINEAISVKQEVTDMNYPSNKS
On the set-up: method as in PMID 25395356. The conditions noted are these: reported earlier; cited from earlier work.

The next test has as its target T2, SIRT3 (Homo sapiens, UniProt Q9NTG7).
T2 sequence (Q9NTG7 1-399): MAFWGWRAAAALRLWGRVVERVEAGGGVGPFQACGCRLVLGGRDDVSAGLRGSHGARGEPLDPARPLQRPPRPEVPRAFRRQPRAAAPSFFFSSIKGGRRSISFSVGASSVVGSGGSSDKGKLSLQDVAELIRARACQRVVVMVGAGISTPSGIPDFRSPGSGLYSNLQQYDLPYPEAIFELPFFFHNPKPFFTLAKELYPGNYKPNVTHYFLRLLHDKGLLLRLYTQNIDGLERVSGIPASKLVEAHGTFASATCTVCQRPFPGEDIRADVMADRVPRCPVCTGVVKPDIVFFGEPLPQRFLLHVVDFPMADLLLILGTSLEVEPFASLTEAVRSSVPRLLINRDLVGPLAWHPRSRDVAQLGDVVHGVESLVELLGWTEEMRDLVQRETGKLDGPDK
On the set-up: method as in PMID 25395356. The note with it: reported earlier; cited from earlier work.

Test [2] has as its system Parkinsonian neuronal cell death model. Details: method as in PMID 25395356. The note with it: cited from earlier work.

As to `COc1ccc2ccccc2c1Cn1cnc2sc3c(c2c1=O)CCC(NCc1cccnc1)C3` (stereo not drawn) [19a], in test [1], the “effect on α-tubulin acetylation level” value is “showed increased acetylated α-tubulin level at 20 μM and decreased level at 50 μM”. Further, in the test on SIRT5 (Figure 1), the IC50 is over 100 µM. For the same compound, in the test on SIRT5 (previous study), the “selectivity for SIRT2 in comparison to SIRT5” value is recorded as “more than 100”. The SIRT2/SIRT1 selectivity on SIRT1 is over 100. Besides, the SIRT2/SIRT3 selectivity on SIRT3 was over 100. In addition, the neuroprotection entry in test [2] is on record as “showed neuroprotection”.
